From PubChem BioAssay AID1845198 (Molecular Pharmacology Branch, DTP, NCI, 2023)

Test system: 425362-245-T-J1 tumor spheroids, viability % test/control
Experiment: Anticancer human tumor 425362-245-T-J1 patient-derived melanoma cell line growth inhibition
Settings: spheroids with HUVEC and MSC; for IC50: curve of first compound; for viability, T/C: stronger effect = lower value
Text: Multicellular complex tumor spheroid response to DNA repair inhibitors in combination with DNA-damaging drugs
This study explores the anticancer activities of DNA-damaging drugs and inhibitors of DNA damage repair, both as single agents and in combinations. Complex tumor spheroids comprised of malignant cells, endothelial cells and mesenchymal stem cells served as an in vitro model for human solid tumors. This model system incorporates physiologically relevant features and patient-derived or established malignant cell lines with clinically relevant genetic alterations from many tumor types. Twenty-six patient-derived or established malignant cell lines were evaluated representing sarcoma, melanoma, small cell lung cancer (SCLC), non-small cell lung cancer (NSCLC), as well as bladder, ovarian and pancreatic cancers. The concentration ranges selected for each drug and investigational agent were based upon clinically achievable concentrations if the clinical Cmax of the agent was known.
Compounds. The drugs and compounds olaparib (NSC753686), talazoparib (NSC767125), berzosertib (NSC777718), elimusertib (NSC800525), nedisertib (NSC802822), VX-984 (NSC792969), AZD-1390 (NSC803789), temozolomide (NSC362856), topotecan (NSC609699), trabectedin (NSC813783), staurosporine (NSC755774), and gemcitabine (NSC613327) were obtained from the National Cancer Institute (NCI) Developmental Therapeutics Program Chemical Repository. The FDA-approved anticancer drug set is available from the Developmental Therapeutics Program at https://dtp.cancer.gov/organization/dscb/obtaining/available_plates.htm. […] The stock solutions were prepared in dimethyl sulfoxide (DMSO, Sigma-Aldrich, St. Louis, MO, cat. D2650) at 400-fold the tested concentration and stored at -70 degrees C. Prior to their use, the stock solutions were diluted in fresh medium and the final DMSO concentration in the assay was 0.25% (v/v). All drugs and investigational agents were tested over a range starting from a high concentration at or near the clinical Cmax and decreasing in half-log increments. If the clinical Cmax for an agent had not been determined, the highest concentration tested was 10 microM.
Cell Lines. The patient-derived cancer cell (PDC) lines: 156681-154-R-J1-PDC, 283228-195-R-J1-PDC, 287954-098-R-J1-PDC, 292921-168-R-J2-PDC, 349418-098-R-PDC, 425362-245-T-J1-PDC, 556581-035-R-J1-PDC, and BL0293-F563-PDC were received from the NCI Patient-Derived Models Repository (PDMR, https://pdmr.cancer.gov). The established cell lines HS-SY-2 (RRID:CVCL_8719), MPNST, and SYO-1 (RRID:CVCL_7146) were obtained from the Sloan Kettering Institute. The alveolar soft parts sarcoma cell line ASPS-1 (RRID:CVCL_S738) was established at the NCI and grown from internal seed stocks. The following established cell lines were purchased from the American Type Culture Collection (ATCC, Manassas, VA): G-401 (ATCC, cat. CRL-1441, RRID:CVCL_0270), SW982 (ATCC, cat. HTB-93, RRID:CVCL_1734), VA-ES-BJ (ATCC, cat. CRL-2138, RRID:CVCL_1785), NCI-H719 (ATCC, cat. CRL-5837, RRID:CVCL_1582), NCI-H196 (ATCC, cat. CRL-5823, RRID:CVCL_1509), NCI-H841 (ATCC, cat. CRL-5845, RRID:CVCL_1595), NCI-H1618 (ATCC, cat. CRL-5879, RRID:CVCL_1480), NCI-H1876 (ATCC, cat. CRL-5902, RRID:CVCL_1503), DMS 114 (ATCC, cat. CRL-2066; RRID:CVCL_1174), NCI-H211 (ATCC, cat. CRL-5824; RRID:CVCL_1529), and SW 1271 (ATCC, cat. CRL-2177, RRID:CVCL_1716). The small cell lung cancer cell line COR-L88 was purchased from Sigma-Aldrich (cat. 92031917-1VL, RRID:CVCL_1141). The non-small cell lung cancer cell lines NCI-H226 (RRID:CVCL_1544) and NCI-H322M (RRID:CVCL_1557) were established at the NCI and grown from internal seed stocks. Pooled donor human umbilical vein endothelial cells (HUVEC, Lonza, cat. CC-2519) and human mesenchymal stem cells (hMSC, Lonza, cat. PT-2501) were purchased from Lonza (Walkersville, MD).
Cell Culture. All cells were maintained in an incubator at 37 degrees C and 5% CO2 with 95% humidity. […]
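Note: spheroids exposed to agents for 7 days.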
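Throughout, for viability, T/C: 100% = DMSO vehicle control viability.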

SMILES: Cc1cc(C)c(CNC(=O)c2cc(-c3ccc(CN4CCOCC4)cc3)cc3c2cnn3C2CCCC2)c(=O)[nH]1 + CC[C@@]1(O)C(=O)OCc2c1cc1n(c2=O)Cc2cc3c(CN(C)C)c(O)ccc3nc2-1
- IC50 (second compound 0.003 µM): 3210 nM
- IC50 (second compound 0.00949 µM): 1960 nM
- IC50 (second compound 0.03 µM): < 31.6 nM
- IC50 (second compound 0.0949 µM): < 31.6 nM
- IC50 (second compound 0.3 µM): < 31.6 nM
- viability, T/C (second compound 0.003 µM, first compound 0.0316 µM): 103%
- viability, T/C (second compound 0.003 µM, first compound 0.1 µM): 81.8%
- viability, T/C (second compound 0.003 µM, first compound 0.316 µM): 84%
- viability, T/C (second compound 0.003 µM, first compound 1 µM): 72.9%
- viability, T/C (second compound 0.003 µM, first compound 3.16 µM): 53.1%
- viability, T/C (second compound 0.003 µM, first compound 10 µM): 10.1%
- viability, T/C (second compound 0.00949 µM, first compound 0.0316 µM): 81.9%
- viability, T/C (second compound 0.00949 µM, first compound 0.1 µM): 75%
- viability, T/C (second compound 0.00949 µM, first compound 0.316 µM): 79.8%
- viability, T/C (second compound 0.00949 µM, first compound 1 µM): 54.1%
- viability, T/C (second compound 0.00949 µM, first compound 3.16 µM): 45.2%
- viability, T/C (second compound 0.00949 µM, first compound 10 µM): 16.8%
- viability, T/C (second compound 0.03 µM, first compound 0.0316 µM): 32.9%
- viability, T/C (second compound 0.03 µM, first compound 0.1 µM): 37.2%
- viability, T/C (second compound 0.03 µM, first compound 0.316 µM): 35.6%
- viability, T/C (second compound 0.03 µM, first compound 1 µM): 33.1%
- viability, T/C (second compound 0.03 µM, first compound 3.16 µM): 11.7%
- viability, T/C (second compound 0.03 µM, first compound 10 µM): 7.5%
- viability, T/C (second compound 0.0949 µM, first compound 0.0316 µM): 6%
- viability, T/C (second compound 0.0949 µM, first compound 0.1 µM): 6.44%
- viability, T/C (second compound 0.0949 µM, first compound 0.316 µM): 4.34%
- viability, T/C (second compound 0.0949 µM, first compound 1 µM): 5.8%
- viability, T/C (second compound 0.0949 µM, first compound 3.16 µM): 5.25%
- viability, T/C (second compound 0.0949 µM, first compound 10 µM): 6.46%
- viability, T/C (second compound 0.3 µM, first compound 0.0316 µM): 1.9%
- viability, T/C (second compound 0.3 µM, first compound 0.1 µM): 2.19%
- viability, T/C (second compound 0.3 µM, first compound 0.316 µM): 2.16%
- viability, T/C (second compound 0.3 µM, first compound 1 µM): 2.06%
- viability, T/C (second compound 0.3 µM, first compound 3.16 µM): 2.3%
- viability, T/C (second compound 0.3 µM, first compound 10 µM): 2.37%

SMILES: Cc1sc2c(c1C)C(c1ccc(Cl)cc1)=NC(CC(=O)Nc1ccc(O)cc1)c1nnc(C)n1-2 (stereo not given) + CC[C@@]1(O)C(=O)OCc2c1cc1n(c2=O)Cc2cc3c(CN(C)C)c(O)ccc3nc2-1
- IC50 (second compound 0.003 µM): 55 nM
- IC50 (second compound 0.00949 µM): 52.3 nM
- IC50 (second compound 0.03 µM): < 9.49 nM
- IC50 (second compound 0.0949 µM): < 9.49 nM
- IC50 (second compound 0.3 µM): < 9.49 nM
- viability, T/C (second compound 0.003 µM, first compound 0.00949 µM): 90.7%
- viability, T/C (second compound 0.003 µM, first compound 0.03 µM): 67.6%
- viability, T/C (second compound 0.003 µM, first compound 0.0949 µM): 35%
- viability, T/C (second compound 0.003 µM, first compound 0.3 µM): 7.09%
- viability, T/C (second compound 0.003 µM, first compound 0.949 µM): 2.44%
- viability, T/C (second compound 0.003 µM, first compound 3 µM): 1.89%
- viability, T/C (second compound 0.00949 µM, first compound 0.00949 µM): 78.9%
- viability, T/C (second compound 0.00949 µM, first compound 0.03 µM): 68.7%
- viability, T/C (second compound 0.00949 µM, first compound 0.0949 µM): 30%
- viability, T/C (second compound 0.00949 µM, first compound 0.3 µM): 9.43%
- viability, T/C (second compound 0.00949 µM, first compound 0.949 µM): 2.81%
- viability, T/C (second compound 0.00949 µM, first compound 3 µM): 2.08%
- viability, T/C (second compound 0.03 µM, first compound 0.00949 µM): 36%
- viability, T/C (second compound 0.03 µM, first compound 0.03 µM): 24.5%
- viability, T/C (second compound 0.03 µM, first compound 0.0949 µM): 20.9%
- viability, T/C (second compound 0.03 µM, first compound 0.3 µM): 8.2%
- viability, T/C (second compound 0.03 µM, first compound 0.949 µM): 2.92%
- viability, T/C (second compound 0.03 µM, first compound 3 µM): 1.49%
- viability, T/C (second compound 0.0949 µM, first compound 0.00949 µM): 6.49%
- viability, T/C (second compound 0.0949 µM, first compound 0.03 µM): 7.18%
- viability, T/C (second compound 0.0949 µM, first compound 0.0949 µM): 5.96%
- viability, T/C (second compound 0.0949 µM, first compound 0.3 µM): 2%
- viability, T/C (second compound 0.0949 µM, first compound 0.949 µM): 1.05%
- viability, T/C (second compound 0.0949 µM, first compound 3 µM): 1.03%
- viability, T/C (second compound 0.3 µM, first compound 0.00949 µM): 2.2%
- viability, T/C (second compound 0.3 µM, first compound 0.03 µM): 1.82%
- viability, T/C (second compound 0.3 µM, first compound 0.0949 µM): 1.38%
- viability, T/C (second compound 0.3 µM, first compound 0.3 µM): 1.33%
- viability, T/C (second compound 0.3 µM, first compound 0.949 µM): 0.79%
- viability, T/C (second compound 0.3 µM, first compound 3 µM): 0.59%
